Data on 20 compounds can be found in US20140107100A1, “Benzoxazepines as Inhibitors of PI3K/mTOR and Methods of Their Use and Manufacture” (EXELIXIS, INC., priority 2010, published 2014).

The target in the test is mTOR/GbL/Raptor (mTORC1) (Homo sapiens, UniProt P42345). Put plainly: mTOR/GbL/Raptor (mTORC1) ELISA assay, phosphorylation of 4E-BP1. Type of test: biochemical. The following applies: 0.2 nM mTORC1, 40 uM ATP, 50 nM NHis-tagged 4E-BP1, 120 minutes; read-out: IC50 in this assay (mTORC1 ELISA). The method in brief:
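Phospho-4E-BP1 was quantified by luminescent ELISA (anti-phospho-4E-BP1 IgG, HRP-tagged secondary) after capture of the His-tagged substrate on Ni-chelate plates.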
On the technique in general: ELISA stands for enzyme-linked immunosorbent assay.
A word on the IC50: it is the concentration needed to halve the response being measured. On to `Cc1cc(-c2cnc3sc(N)nc3c2)cc2c1OCCN(c1nc(N)ncc1C(C)C)C2` [Compound 11, 6-{4-[2-amino-5-(1-methylethyl)pyrimidin-4-yl]-9-methyl-2,3,4,5-tetrahydro-1,4-benzoxazepin-7-yl}[1,3]thiazolo[5,4-b]pyridin-2-amine], for which the IC50 is at most 100 nM.
For the compound `C=Cc1c(C)ncnc1N1CCOc2c(C)cc(-c3cnc4sc(N)nc4c3)cc2C1` [Compound 115, 6-[4-(5-ethenyl-6-methylpyrimidin-4-yl)-9-methyl-2,3,4,5-tetrahydro-1,4-benzoxazepin-7-yl][1,3]thiazolo[5,4-b]pyridin-2-amine], the IC50 is at most 100 nM.
The result for `Cc1cnc(N)nc1N1CCOc2c(C)cc(-c3nnc(N)s3)cc2C1` [Compound 178, 4-[7-(5-amino-1,3,4-thiadiazol-2-yl)-9-methyl-2,3-dihydro-1,4-benzoxazepin-4(5H)-yl]-5-methylpyrimidin-2-amine] reads at most 100 nM; that for `Cc1cc(-c2cnc3nc[nH]c3c2)cc2c1OCCN(c1nc(CN(C)CC(F)F)nc(C)c1C(C)C)C2` [Compound 167, 2,2-difluoro-N-({4-[7-(1H-imidazo[4,5-b]pyridin-6-yl)-9-methyl-2,3-dihydro-1,4-benzoxazepin-4(5H)-yl]-6-methyl-5-(1-methylethyl)pyrimidin-2-yl}methyl)-N-methylethanamine], 100 to 500 nM; that for `Cc1cc(-c2cnc3sc(N)nc3c2)cc2c1OCCN(c1nc(N)c(C#N)c(C)c1C#N)C2` [Compound 57, 2-amino-6-[7-(2-amino[1,3]thiazolo[5,4-b]pyridin-6-yl)-9-methyl-2,3-dihydro-1,4-benzoxazepin-4(5H)-yl]-4-methylpyridine-3,5-dicarbonitrile], at most 100 nM.
The result for `CC(=O)NCc1nc(C)c(C(C)C)c(N2CCOc3c(C)cc(-c4cnc5sc(N)nc5c4)cc3C2)n1` [Compound 119, N-({4-[7-(2-amino[1,3]thiazolo[5,4-b]pyridin-6-yl)-9-methyl-2,3-dihydro-1,4-benzoxazepin-4(5H)-yl]-6-methyl-5-(1-methylethyl)pyrimidin-2-yl}methyl)acetamide] reads at most 100 nM; that for `Cc1cc(-c2cnc3sc(N)nc3c2)cc2c1OCCN(c1nc(N3CC(O)C3)nc(C)c1C(C)C)C2` [Compound 139, 1-{4-[7-(2-amino[1,3]thiazolo[5,4-b]pyridin-6-yl)-9-methyl-2,3-dihydro-1,4-benzoxazepin-4(5H)-yl]-6-methyl-5-(1-methylethyl)pyrimidin-2-yl}azetidin-3-ol], at most 100 nM; that for `Cc1cc(-c2ccnc(F)c2)cc2c1OCCN(c1nc(N)nc(C)c1C(C)C)C2` [Compound 83, 4-[7-(2-fluoropyridin-4-yl)-9-methyl-2,3-dihydro-1,4-benzoxazepin-4(5H)-yl]-6-methyl-5-(1-methylethyl)pyrimidin-2-amine], 100 to 500 nM.
Next, `Cc1cc(-c2cnc3sc(N)nc3c2)cc2c1OCCN(c1ncncc1C(C)C)C2` [Compound 116, 6-{9-methyl-4-[5-(1-methylethyl)pyrimidin-4-yl]-2,3,4,5-tetrahydro-1,4-benzoxazepin-7-yl}[1,3]thiazolo[5,4-b]pyridin-2-amine]: at most 100 nM; `Cc1cc(-c2cnc3sc(N)nc3c2)cc2c1OCCN(c1nc(CNC(C)(C)C)nc(C)c1C(C)C)C2` [Compound 90, 6-{4-[2-{[(1,1-dimethylethyl)amino]methyl}-6-methyl-5-(1-methylethyl)pyrimidin-4-yl]-9-methyl-2,3,4,5-tetrahydro-1,4-benzoxazepin-7-yl}[1,3]thiazolo[5,4-b]pyridin-2-amine]: at most 100 nM.
Regarding `COc1ncc(-c2cc(C)c3c(c2)CN(c2nc(N)nc(C)c2C(C)C)CCO3)cc1NS(C)(=O)=O` [Compound 21, N-[5-{4-[2-amino-6-methyl-5-(1-methylethyl)pyrimidin-4-yl]-9-methyl-2,3,4,5-tetrahydro-1,4-benzoxazepin-7-yl}-2-(methyloxy)pyridin-3-yl]methanesulfonamide], the 50% inhibitory concentration (IC50) was at most 100 nM.
Next, `CCc1c(C)nc(N)nc1N1CCOc2c(C)cc(-c3cnc4sc(N)nc4c3)cc2C1` [Compound 8, 6-[4-(2-amino-5-ethyl-6-methylpyrimidin-4-yl)-9-methyl-2,3,4,5-tetrahydro-1,4-benzoxazepin-7-yl][1,3]thiazolo[5,4-b]pyridin-2-amine]: at most 100 nM; `Cc1cc(-c2ccc(N)nc2)cc2c1OCCN(c1nc(N)nc(C)c1C(C)C)C2` [Compound 24, 4-[7-(6-aminopyridin-3-yl)-9-methyl-2,3-dihydro-1,4-benzoxazepin-4(5H)-yl]-6-methyl-5-(1-methylethyl)pyrimidin-2-amine]: 100 to 500 nM; `Cc1cc(-c2nnc(N)s2)cc2c1OCCN(c1nc(N)nc(C)c1C)C2` [Compound 179, 4-[7-(5-amino-1,3,4-thiadiazol-2-yl)-9-methyl-2,3-dihydro-1,4-benzoxazepin-4(5H)-yl]-5,6-dimethylpyrimidin-2-amine]: at most 100 nM.
Consider `Cc1cc(-c2cnc3sc(N)nc3c2)cc2c1OCCN(c1nc(N)ncc1C(F)(F)F)C2` [Compound 12, 6-{4-[2-amino-5-(trifluoromethyl)pyrimidin-4-yl]-9-methyl-2,3,4,5-tetrahydro-1,4-benzoxazepin-7-yl}[1,3]thiazolo[5,4-b]pyridin-2-amine], for which the half-inhibitory concentration (IC50) is at most 100 nM.
Next, `Cc1cc(-c2cnc(Cl)c(NS(C)(=O)=O)c2)cc2c1OCCN(c1nc(C(=O)NCCN(C)C)nc(C)c1C(C)C)C2` [Compound 43, 4-[7-(6-chloro-5-[(methylsulfonyl)amino]pyridin-3-yl}-9-methyl-2,3-dihydro-1,4-benzoxazepin-4(5H)-yl]-N-[2-(dimethylamino)ethyl]-6-methyl-5-(1-methylethyl)pyrimidine-2-carboxamide]: at most 100 nM; `Cc1cc(-c2cnc3sc(N)nc3c2)cc2c1OCCN(c1ncccc1C#N)C2` [Compound 38, 2-[7-(2-amino[1,3]thiazolo[5,4-b]pyridin-6-yl)-9-methyl-2,3-dihydro-1,4-benzoxazepin-4(5H)-yl]pyridine-3-carbonitrile]: 100 to 500 nM; `C=C(C)c1c(C)nc(N)nc1N1CCOc2c(C)cc(-c3cnc4sc(N)nc4c3)cc2C1` [Compound 130, 6-{4-[2-amino-6-methyl-5-(1-methylethenyl)pyrimidin-4-yl]-9-methyl-2,3,4,5-tetrahydro-1,4-benzoxazepin-7-yl}[1,3]thiazolo[5,4-b]pyridin-2-amine]: at most 100 nM.
The result for `CNc1nc(C)c(C(C)C)c(N2CCOc3c(C)cc(-c4cnc5sc(N)nc5c4)cc3C2)n1` [Compound 53, 6-{9-methyl-4-[6-methyl-2-(methylamino)-5-(1-methylethyl)pyrimidin-4-yl]-2,3,4,5-tetrahydro-1,4-benzoxazepin-7-yl}[1,3]thiazolo[5,4-b]pyridin-2-amine] reads at most 100 nM.
For `Cc1cc(-c2nnc(N)s2)cc2c1OCCN(c1nc(N)ncc1C(C)C)C2` [Compound 180, 4-[7-(5-amino-1,3,4-thiadiazol-2-yl)-9-methyl-2,3-dihydro-1,4-benzoxazepin-4(5H)-yl]-5-(1-methylethyl)pyrimidin-2-amine], the IC50 is at most 100 nM.
